The source of these data is patent US12466827B2, “1,3,4-oxadiazole derivative compounds as histone deacetylase 6 inhibitor, and the pharmaceutical composition comprising the same” (CHONG KUN DANG PHARMACEUTICAL CORP., priority 2020, dated 2025).

In one assay the target is T1, human recombinant HDAC1 (Homo sapiens, UniProt Q13547).
T1 construct: purchased Enzo Life Sciences, Inc. BML-SE456
Kind of assay: In vitro HDAC enzyme activity inhibition assay (HDAC1). Type of assay: biochemical. The settings on record: Fluor de Lys-SIRT1 substrate 10 μM, 30° C., 60 minutes, fluorescence. As to the method:
(§1) In order to confirm the selectivity of the compounds represented by Chemical Formula I of the present invention to HDAC6 through HDAC1 and HDAC6 enzyme activity inhibition experiments, a comparison experiment was performed using the material that has already been developed as a control group.
(§2) HDAC enzyme activity was measured using the HDAC Fluorimetric Drug Discovery Kit (Enzo Life Sciences, Inc., BML-AK511, 516). For the HDAC1 enzyme activity test, human recombinant HDAC1 (BML-SE456) was used as an enzyme source and Fluor de Lys-SIRT1 (BNL-KI177) was used as a substrate. After dispensing 5-fold diluted compounds into a 96-well plate, 0.3 μg of enzyme and 10 μM substrate were added to each well of the plate and allowed to react at 30° C. for 60 minutes. Next, Fluor de Lys Developer II (BML-KI176) was added and reacted for 30 minutes to complete the reaction, and then the fluorescence values (Ex 360, Em 460) were measured using a multi-plate reader (Flexstation 3, Molecular Device). The HDAC6 enzymes were tested using human recombinant HDAC6 (382180) from Calbiochem Inc., according to the same protocol as the HDAC1 enzyme activity test method. With respect to the final result values, respective IC50 values were calculated using GraphPad Prism 4.0 program, and results thereof were summarized in Table 4 below.

A further assay has as its target T2, human recombinant HDAC6 (Homo sapiens, UniProt Q9UBN7).
T2 construct: purchased Calbiochem Inc. 382180
T2 sequence (Q9UBN7 1-1215): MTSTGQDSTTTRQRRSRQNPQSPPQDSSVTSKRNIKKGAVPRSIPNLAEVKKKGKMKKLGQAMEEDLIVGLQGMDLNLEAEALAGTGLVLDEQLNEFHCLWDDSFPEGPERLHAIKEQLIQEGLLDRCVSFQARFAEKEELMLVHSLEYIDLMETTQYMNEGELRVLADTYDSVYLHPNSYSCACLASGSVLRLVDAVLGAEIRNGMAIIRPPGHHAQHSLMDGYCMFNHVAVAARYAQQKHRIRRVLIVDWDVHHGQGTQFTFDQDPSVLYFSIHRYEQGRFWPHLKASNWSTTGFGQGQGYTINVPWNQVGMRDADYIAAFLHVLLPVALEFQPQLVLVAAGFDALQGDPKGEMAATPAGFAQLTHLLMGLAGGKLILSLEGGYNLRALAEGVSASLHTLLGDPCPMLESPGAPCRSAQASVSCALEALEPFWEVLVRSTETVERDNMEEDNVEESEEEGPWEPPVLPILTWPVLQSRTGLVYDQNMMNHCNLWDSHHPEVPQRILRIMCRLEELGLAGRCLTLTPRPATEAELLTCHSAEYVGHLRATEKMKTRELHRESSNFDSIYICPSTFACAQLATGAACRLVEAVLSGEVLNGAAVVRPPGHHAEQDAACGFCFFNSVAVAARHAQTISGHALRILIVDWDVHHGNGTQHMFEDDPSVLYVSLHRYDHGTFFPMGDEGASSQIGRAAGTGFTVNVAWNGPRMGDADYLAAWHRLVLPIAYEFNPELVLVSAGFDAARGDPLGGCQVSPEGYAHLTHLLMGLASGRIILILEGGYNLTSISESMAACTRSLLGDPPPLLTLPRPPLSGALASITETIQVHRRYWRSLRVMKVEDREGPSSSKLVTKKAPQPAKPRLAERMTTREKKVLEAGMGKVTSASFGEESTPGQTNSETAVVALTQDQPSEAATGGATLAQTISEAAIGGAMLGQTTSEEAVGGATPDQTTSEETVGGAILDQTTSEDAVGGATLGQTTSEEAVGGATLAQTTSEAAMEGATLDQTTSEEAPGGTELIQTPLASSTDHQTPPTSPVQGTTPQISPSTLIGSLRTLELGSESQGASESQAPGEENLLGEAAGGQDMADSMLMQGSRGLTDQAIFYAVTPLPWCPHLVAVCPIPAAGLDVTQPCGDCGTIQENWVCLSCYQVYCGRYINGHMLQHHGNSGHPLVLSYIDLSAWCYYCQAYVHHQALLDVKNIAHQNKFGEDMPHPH
Kind of assay: In vitro HDAC enzyme activity inhibition assay (HDAC6). In kind it is biochemical. The settings on record: for HDAC6 selectivity (fold): HDAC6 over HDAC1; for IC50: same protocol as the HDAC1 test, human recombinant HDAC6 (Calbiochem). The protocol: as §1, §2

T1 sequence (Q13547 whole entry): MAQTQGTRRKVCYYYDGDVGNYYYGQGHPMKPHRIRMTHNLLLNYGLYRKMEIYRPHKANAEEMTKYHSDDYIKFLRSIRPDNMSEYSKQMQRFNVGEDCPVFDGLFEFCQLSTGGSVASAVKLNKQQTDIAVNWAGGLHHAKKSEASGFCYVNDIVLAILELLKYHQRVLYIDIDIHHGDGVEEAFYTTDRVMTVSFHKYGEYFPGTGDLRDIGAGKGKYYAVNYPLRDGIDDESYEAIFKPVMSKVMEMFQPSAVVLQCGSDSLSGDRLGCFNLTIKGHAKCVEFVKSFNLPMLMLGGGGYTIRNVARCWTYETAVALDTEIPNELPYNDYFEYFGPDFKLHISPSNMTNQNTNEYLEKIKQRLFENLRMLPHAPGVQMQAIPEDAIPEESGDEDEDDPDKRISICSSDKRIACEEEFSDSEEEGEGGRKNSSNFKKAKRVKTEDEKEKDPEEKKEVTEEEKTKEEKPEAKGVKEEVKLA

What is called IC50 is the concentration that gives 50% inhibition. For `CN1CCC(S(=O)(=O)N(Cc2cn3ccc(-c4nnc(C(F)F)o4)cc3n2)c2ccccc2)CC1` [Compound 3778, N-((7-(5-(difluoromethyl)-1,3,4-oxadiazol-2-yl)imidazo[1,2-a]pyridin-2-yl)methyl)-1-methyl-N-phenylpiperidine-4-sulfonamide], the IC50 at human recombinant HDAC1 is > 50 µM. Besides, on human recombinant HDAC6, the “HDAC6 selectivity (fold)” value is listed as 549 fold and the half-inhibitory concentration (IC50) amounted to 0.091 µM.

As for `O=S(=O)(C1CCN(C2COC2)CC1)N(Cc1cn2ccc(-c3nnc(C(F)F)o3)cc2n1)c1ccccc1` [Compound 3779, N-((7-(5-(difluoromethyl)-1,3,4-oxadiazol-2-yl)imidazo[1,2-a]pyridin-2-yl)methyl)-1-(oxetan-3-yl)-N-phenylpiperidine-4-sulfonamide], the IC50 at human recombinant HDAC1 is > 50 µM; at human recombinant HDAC6, 0.156 µM. Besides, the “HDAC6 selectivity (fold)” value on human recombinant HDAC6 turned out to be 321 fold.

In the case of `CCN1CCC(S(=O)(=O)N(Cc2cn3ccc(-c4nnc(C(F)F)o4)cc3n2)c2ccccc2)CC1` [Compound 4214, N-((7-(5-(difluoromethyl)-1,3,4-oxadiazol-2-yl)imidazo[1,2-a]pyridin-2-yl)methyl)-1-ethyl-N-phenylpiperidine-4-sulfonamide], the figures for the IC50 on human recombinant HDAC1 and at human recombinant HDAC6 were > 50 µM and 0.18 µM, respectively. Further, the “HDAC6 selectivity (fold)” value on human recombinant HDAC6 stood at 278 fold.

Take `CC(C)N1CCC(S(=O)(=O)N(Cc2cn3ccc(-c4nnc(C(F)F)o4)cc3n2)c2ccccc2)CC1` [Compound 4215, N-((7-(5-(difluoromethyl)-1,3,4-oxadiazol-2-yl)imidazo[1,2-a]pyridin-2-yl)methyl)-1-isopropyl-N-phenylpiperidine-4-sulfonamide]: the IC50 at human recombinant HDAC1 is > 50 µM; on human recombinant HDAC6, 0.182 µM. For the same compound, the “HDAC6 selectivity (fold)” value at human recombinant HDAC6 is recorded as 275 fold.

As for `CC(CO)N1CCC(S(=O)(=O)N(Cc2cn3ccc(-c4nnc(C(F)F)o4)cc3n2)c2ccccc2)CC1` (stereo not drawn) [Compound 4216, N-((7-(5-(difluoromethyl)-1,3,4-oxadiazol-2-yl)imidazo[1,2-a]pyridin-2-yl)methyl)-1-(1-hydroxypropan-2-yl)-N-phenylpiperidine-4-sulfonamide], the IC50 on human recombinant HDAC1 is > 50 µM; on human recombinant HDAC6, 0.119 µM. Further, the “HDAC6 selectivity (fold)” value on human recombinant HDAC6 came out at 420 fold.

Regarding `O=S(=O)(C1CCN(C2CCC2)CC1)N(Cc1cn2ccc(-c3nnc(C(F)F)o3)cc2n1)c1ccccc1` [Compound 4217, 1-cyclobutyl-N-((7-(5-(difluoromethyl)-1,3,4-oxadiazol-2-yl)imidazo[1,2-a]pyridin-2-yl)methyl)-N-phenylpiperidine-4-sulfonamide], the IC50 on human recombinant HDAC1 was > 50 µM. Further, at human recombinant HDAC6, the “HDAC6 selectivity (fold)” value was determined as 410 fold and the IC50 came out at 0.122 µM.

For the compound `O=S(=O)(C1CCN(C2CCCCC2)CC1)N(Cc1cn2ccc(-c3nnc(C(F)F)o3)cc2n1)c1ccccc1` [Compound 4218, 1-cyclohexyl-N-((7-(5-(difluoromethyl)-1,3,4-oxadiazol-2-yl)imidazo[1,2-a]pyridin-2-yl)methyl)-N-phenylpiperidine-4-sulfonamide], the IC50 at human recombinant HDAC1 is > 50 µM. Also, on human recombinant HDAC6, the “HDAC6 selectivity (fold)” value is given as 433 fold and the IC50 was 0.116 µM.

With `O=S(=O)(C1CCN(C2CCOCC2)CC1)N(Cc1cn2ccc(-c3nnc(C(F)F)o3)cc2n1)c1ccccc1` [Compound 4219, N-((7-(5-(difluoromethyl)-1,3,4-oxadiazol-2-yl)imidazo[1,2-a]pyridin-2-yl)methyl)-N-phenyl-1-(tetrahydro-2H-pyran-4-yl)piperidine-4-sulfonamide], the half-inhibitory concentration (IC50) is > 50 µM on human recombinant HDAC1 and 0.104 µM at human recombinant HDAC6. Also, at human recombinant HDAC6, the “HDAC6 selectivity (fold)” value is listed as 482 fold.

With `O=S(=O)(C1CCN(C2CCC(F)(F)CC2)CC1)N(Cc1cn2ccc(-c3nnc(C(F)F)o3)cc2n1)c1ccccc1` [Compound 4220, 1-(4,4-difluorocyclohexyl)-N-((7-(5-(difluoromethyl)-1,3,4-oxadiazol-2-yl)imidazo[1,2-a]pyridin-2-yl)methyl)-N-phenylpiperidine-4-sulfonamide], on human recombinant HDAC1, the IC50 is > 50 µM. For the same compound, at human recombinant HDAC6, the “HDAC6 selectivity (fold)” value came out at 320 fold and the IC50 was 0.156 µM.

In the case of `CC(=O)N1CCC(S(=O)(=O)N(Cc2cn3ccc(-c4nnc(C(F)F)o4)cc3n2)c2ccccc2)CC1` [Compound 4221, 1-acetyl-N-((7-(5-(difluoromethyl)-1,3,4-oxadiazol-2-yl)imidazo[1,2-a]pyridin-2-yl)methyl)-N-phenylpiperidine-4-sulfonamide], the IC50 at human recombinant HDAC1 is > 50 µM. For the same compound, on human recombinant HDAC6, the “HDAC6 selectivity (fold)” value is reported as 364 fold and the IC50 is 0.137 µM.

With `CCC(=O)N1CCC(S(=O)(=O)N(Cc2cn3ccc(-c4nnc(C(F)F)o4)cc3n2)c2ccccc2)CC1` [Compound 4222, N-((7-(5-(difluoromethyl)-1,3,4-oxadiazol-2-yl)imidazo[1,2-a]pyridin-2-yl)methyl)-N-phenyl-1-propionylpiperidine-4-sulfonamide], at human recombinant HDAC1, the half-inhibitory concentration (IC50) was > 50 µM. Besides, at human recombinant HDAC6, the “HDAC6 selectivity (fold)” value is listed as 229 fold and the IC50 turned out to be 0.218 µM.

In the case of `O=C(C1CCC1)N1CCC(S(=O)(=O)N(Cc2cn3ccc(-c4nnc(C(F)F)o4)cc3n2)c2ccccc2)CC1` [Compound 4223, 1-(cyclobutanecarbonyl)-N-((7-(5-(difluoromethyl)-1,3,4-oxadiazol-2-yl)imidazo[1,2-a]pyridine-2-yl)methyl)-N-phenylpiperidine-4-sulfonamide], the IC50 at human recombinant HDAC1 was > 50 µM. For the same compound, on human recombinant HDAC6, the “HDAC6 selectivity (fold)” value is 392 fold and the IC50 was 0.128 µM.

Take `O=C(N1CCC(S(=O)(=O)N(Cc2cn3ccc(-c4nnc(C(F)F)o4)cc3n2)c2ccccc2)CC1)C(F)(F)F` [Compound 4224, N-((7-(5-(difluoromethyl)-1,3,4-oxadiazol-2-yl)imidazo[1,2-a]pyridin-2-yl)methyl)-N-phenyl-1-(2,2,2-trifluoroacetyl)piperidine-4-sulfonamide]: at human recombinant HDAC1, the IC50 was > 50 µM. On human recombinant HDAC6, the “HDAC6 selectivity (fold)” value is on record as 354 fold and the IC50 is 0.141 µM.

As for `CS(=O)(=O)N1CCC(S(=O)(=O)N(Cc2cn3ccc(-c4nnc(C(F)F)o4)cc3n2)c2ccccc2)CC1` [Compound 4225, N-((7-(5-(difluoromethyl)-1,3,4-oxadiazol-2-yl)imidazo[1,2-a]pyridin-2-yl)methyl)-1-(methylsulfonyl)-N-phenylpiperidine-4-sulfonamide], the half-inhibitory concentration (IC50) on human recombinant HDAC1 is > 50 µM. At human recombinant HDAC6, the “HDAC6 selectivity (fold)” value is given as 530 fold and the IC50 turned out to be 0.0944 µM.

On to `COC(=O)N1CCC(S(=O)(=O)N(Cc2cn3ccc(-c4nnc(C(F)F)o4)cc3n2)c2ccccc2)CC1` [Compound 4226, methyl 4-(N-((7-(5-(difluoromethyl)-1,3,4-oxadiazol-2-yl)imidazo[1,2-a]pyridin-2-yl)methyl)-N-phenylsulfamoyl)piperidine-1-carboxylate], for which the IC50 on human recombinant HDAC1 is > 50 µM. Besides, at human recombinant HDAC6, the “HDAC6 selectivity (fold)” value is 432 fold and the IC50 was 0.116 µM.

Turning to `CN(C)C(=O)N1CCC(S(=O)(=O)N(Cc2cn3ccc(-c4nnc(C(F)F)o4)cc3n2)c2ccccc2)CC1` [Compound 4227, 4—(N-((7-(5-(difluoromethyl)-1,3,4-oxadiazol-2-yl)imidazo[1,2-a]pyridin-2-yl)methyl)-N-phenylsulfamoyl)-N, N-dimethylpiperidine-1-carboxamide], the IC50 on human recombinant HDAC1 was > 50 µM. Besides, on human recombinant HDAC6, the “HDAC6 selectivity (fold)” value is 241 fold and the IC50 came to 0.208 µM.
